These results are taken from patent US20130095605A1, “LEAVING SUBSTITUENT-CONTAINING COMPOUND, ORGANIC SEMICONDUCTOR MATERIAL FORMED THEREFROM, ORGANIC ELECTRONIC DEVICE, ORGANIC THIN-FILM TRANSISTOR AND DISPLAY DEVICE USING THE ORGANIC SEMICONDUCTOR MATERIAL, METHOD FOR PRODUCING FILM-LIKE PRODUCT, PI-ELECTRON CONJUGATED COMPOUND AND METHOD FOR …” (RICOH COMPANY, LTD., priority 2010, published 2013).

The first data set can be described thus: Evaluation of dissolvability (saturated solution in organic solvent). It is filed as physicochemical. Particulars: Anisole; reflux 10 min, cooled to room temperature, left 16 hours, filtrated. How it is done:
Each of the compounds obtained in Examples 1, 3, 5, 6, 7, 8, 9, 10, 11 and 12 and the corresponding specific compounds (24) to (33) was added to toluene, THF, anisole or chloroform (each: […]) until insoluble matter was found. The resultant mixture was stirred for 10 min under reflux of the solvent and cooled to room temperature, followed by stirring for 1 hour. After the mixture had been left to stand still for 16 hours, the supernatant was filtrated with a 0.2 μm PTFE filter to obtain a saturated solution. The obtained solution was dried under reduced pressure to calculate the dissolvability of the compound to each solvent.
The evaluation criteria in Table 1 are as follows.
A: 0.5% by mass≦Dissolvability B: 0.1% by mass≦Dissolvability<0.5% by mass C: 0.005% by mass≦Dissolvability<0.1% by mass D: Dissolvability<0.005% by mass
For `c1ccc2cc(-c3cc4sc(-c5ccc6ccccc6c5)cc4s3)ccc2c1` [Compound (24)], the “Dissolvability, solvent Anisole” value is “D (Dissolvability<0.005% by mass)”.
On the same count and under the same terms, for `c1ccc2c(c1)ccc1c3cc4sc5c6ccccc6ccc5c4cc3sc21` [Compound (25)] the value was “D (Dissolvability<0.005% by mass)”.
The same measure, in the same setting: the entry for `c1ccc2c(c1)ccc1cc3ccc4c5c(ccc6ccccc65)cc5ccc(c12)c3c54` [Compound (26)] is “D (Dissolvability<0.005% by mass)”; for `c1ccc2c(c1)ccc1c3cc4ccc5c6ccccc6ccc5c4cc3ccc21` [Compound (27)] it is “D (Dissolvability<0.005% by mass)”.
As for `c1cc2ccc3cc4ccc5cc6c(ccc7cc8ccc9cccc%10ccc(c76)c8c9%10)cc5c4c4ccc(c1)c2c34` [Compound (28)], the “Dissolvability, solvent Anisole” value is given as “D (Dissolvability<0.005% by mass)”.
Turning to `c1ccc2cc3c(ccc4c3ccc3c4ccc4c5ccc6cc7ccccc7cc6c5ccc43)cc2c1` [Compound (29)], the “Dissolvability, solvent Anisole” value is on record as “D (Dissolvability<0.005% by mass)”.
Still for that read-out and setting: for `C(#Cc1cc2sc3cc4c(cc3c2s1)sc1cc(C#Cc2ccc3ccccc3c2)sc14)c1ccc2ccccc2c1` [Compound (30)] the value was “D (Dissolvability<0.005% by mass)”; for `C(#Cc1ccc2c(ccc3cc(C#Cc4ccccc4)ccc32)c1)c1ccccc1` [Compound (31)], “C (0.005% by mass≦Dissolvability<0.1% by mass)”.
Take `COC1CC=Cc2ccc(-c3cc4sc(-c5ccc6c(c5)C(OC)CC=C6)cc4s3)cc21` (stereo not shown) [Ex. 3 compound]: the “Dissolvability, solvent Anisole” value was “B (0.1% by mass≦Dissolvability<0.5% by mass)”.
The same measure, in the same setting: the entry for `CCCCC(CC)C(=O)OC1Cc2ccccc2-c2c1cc1ccc3c4c(cc5ccc2c1c53)C(OC(=O)C(CC)CCCC)Cc1ccccc1-4` (stereo not shown) [Ex. 7 compound] is “B (0.1% by mass≦Dissolvability<0.5% by mass)”; for `CC(C)(C)C(=O)OC1Cc2cc3c(cc2-c2ccc4ccccc4c21)CC(OC(=O)C(C)(C)C)c1c-3ccc2ccccc12` (stereo not shown) [Ex. 8 compound] it is “A (0.5% by mass≦Dissolvability)”; for `CCCCCC(=O)OC1CC=Cc2cc3c(ccc4c3ccc3c4ccc4c5ccc6cc7c(cc6c5ccc43)C=CCC7OC(=O)CCCCC)cc21` (stereo not shown) [Ex. 10 compound] it is “B (0.1% by mass≦Dissolvability<0.5% by mass)”.
Same read-out and setting: for `CCCCCC(=O)OC1Cc2cc(C#Cc3ccccc3)ccc2-c2ccc(C#Cc3ccccc3)cc21` (stereo not shown) [Ex. 12 compound] the value was “A (0.5% by mass≦Dissolvability)”.

The same data set, now with this note: THF; reflux 10 min, cooled to room temperature, left 16 hours, filtrated.
In the case of `c1ccc2cc(-c3cc4sc(-c5ccc6ccccc6c5)cc4s3)ccc2c1` [Compound (24)], the “Dissolvability, solvent THF” value is listed as “D (Dissolvability<0.005% by mass)”.
In the case of `c1ccc2c(c1)ccc1c3cc4sc5c6ccccc6ccc5c4cc3sc21` [Compound (25)], the “Dissolvability, solvent THF” value is given as “D (Dissolvability<0.005% by mass)”.
As for `c1ccc2c(c1)ccc1cc3ccc4c5c(ccc6ccccc65)cc5ccc(c12)c3c54` [Compound (26)], the “Dissolvability, solvent THF” value is “D (Dissolvability<0.005% by mass)”.
Turning to `c1ccc2c(c1)ccc1c3cc4ccc5c6ccccc6ccc5c4cc3ccc21` [Compound (27)], the “Dissolvability, solvent THF” value was “D (Dissolvability<0.005% by mass)”.
`c1cc2ccc3cc4ccc5cc6c(ccc7cc8ccc9cccc%10ccc(c76)c8c9%10)cc5c4c4ccc(c1)c2c34` [Compound (28)]: the “Dissolvability, solvent THF” value is listed as “D (Dissolvability<0.005% by mass)”.
In the case of `c1ccc2cc3c(ccc4c3ccc3c4ccc4c5ccc6cc7ccccc7cc6c5ccc43)cc2c1` [Compound (29)], the “Dissolvability, solvent THF” value is listed as “D (Dissolvability<0.005% by mass)”.
Still for that read-out and setting: for `C(#Cc1cc2sc3cc4c(cc3c2s1)sc1cc(C#Cc2ccc3ccccc3c2)sc14)c1ccc2ccccc2c1` [Compound (30)] the value was “D (Dissolvability<0.005% by mass)”.
For the molecule `C(#Cc1ccc2c(ccc3cc(C#Cc4ccccc4)ccc32)c1)c1ccccc1` [Compound (31)], the “Dissolvability, solvent THF” value was “B (0.1% by mass≦Dissolvability<0.5% by mass)”.
Same read-out and setting: for `COC1CC=Cc2ccc(-c3cc4sc(-c5ccc6c(c5)C(OC)CC=C6)cc4s3)cc21` (stereo not shown) [Ex. 3 compound] the value was “A (0.5% by mass≦Dissolvability)”; for `CCCCC(CC)C(=O)OC1Cc2ccccc2-c2c1cc1ccc3c4c(cc5ccc2c1c53)C(OC(=O)C(CC)CCCC)Cc1ccccc1-4` (stereo not shown) [Ex. 7 compound], “A (0.5% by mass≦Dissolvability)”.
`CC(C)(C)C(=O)OC1Cc2cc3c(cc2-c2ccc4ccccc4c21)CC(OC(=O)C(C)(C)C)c1c-3ccc2ccccc12` (stereo not shown) [Ex. 8 compound]: the “Dissolvability, solvent THF” value is “A (0.5% by mass≦Dissolvability)”.
On the same count and under the same terms, for `CCCCCC(=O)OC1CC=Cc2cc3c(ccc4c3ccc3c4ccc4c5ccc6cc7c(cc6c5ccc43)C=CCC7OC(=O)CCCCC)cc21` (stereo not shown) [Ex. 10 compound] the value was “A (0.5% by mass≦Dissolvability)”.
Still for that read-out and setting: the entry for `CCCCCC(=O)OC1Cc2cc(C#Cc3ccccc3)ccc2-c2ccc(C#Cc3ccccc3)cc21` (stereo not shown) [Ex. 12 compound] is “A (0.5% by mass≦Dissolvability)”.

The data set is the same for the next values; noted with them: Toluene; reflux 10 min, cooled to room temperature, left 16 hours, filtrated.
Regarding `c1ccc2cc(-c3cc4sc(-c5ccc6ccccc6c5)cc4s3)ccc2c1` [Compound (24)], the “Dissolvability, solvent Toluene” value is “D (Dissolvability<0.005% by mass)”.
On the same count and under the same terms, for `c1ccc2c(c1)ccc1c3cc4sc5c6ccccc6ccc5c4cc3sc21` [Compound (25)] the value was “D (Dissolvability<0.005% by mass)”; for `c1ccc2c(c1)ccc1cc3ccc4c5c(ccc6ccccc65)cc5ccc(c12)c3c54` [Compound (26)], “D (Dissolvability<0.005% by mass)”.
For `c1ccc2c(c1)ccc1c3cc4ccc5c6ccccc6ccc5c4cc3ccc21` [Compound (27)], the “Dissolvability, solvent Toluene” value is “D (Dissolvability<0.005% by mass)”.
As for `c1cc2ccc3cc4ccc5cc6c(ccc7cc8ccc9cccc%10ccc(c76)c8c9%10)cc5c4c4ccc(c1)c2c34` [Compound (28)], the “Dissolvability, solvent Toluene” value was “D (Dissolvability<0.005% by mass)”.
On the same count and under the same terms, the entry for `c1ccc2cc3c(ccc4c3ccc3c4ccc4c5ccc6cc7ccccc7cc6c5ccc43)cc2c1` [Compound (29)] is “D (Dissolvability<0.005% by mass)”; for `C(#Cc1cc2sc3cc4c(cc3c2s1)sc1cc(C#Cc2ccc3ccccc3c2)sc14)c1ccc2ccccc2c1` [Compound (30)] it is “D (Dissolvability<0.005% by mass)”; for `C(#Cc1ccc2c(ccc3cc(C#Cc4ccccc4)ccc32)c1)c1ccccc1` [Compound (31)] it is “C (0.005% by mass≦Dissolvability<0.1% by mass)”.
In the case of `COC1CC=Cc2ccc(-c3cc4sc(-c5ccc6c(c5)C(OC)CC=C6)cc4s3)cc21` (stereo not shown) [Ex. 3 compound], the “Dissolvability, solvent Toluene” value is given as “A (0.5% by mass≦Dissolvability)”.
The same measure, in the same setting: the entry for `CCCCC(CC)C(=O)OC1Cc2ccccc2-c2c1cc1ccc3c4c(cc5ccc2c1c53)C(OC(=O)C(CC)CCCC)Cc1ccccc1-4` (stereo not shown) [Ex. 7 compound] is “B (0.1% by mass≦Dissolvability<0.5% by mass)”.
The same measure, in the same setting: the entry for `CC(C)(C)C(=O)OC1Cc2cc3c(cc2-c2ccc4ccccc4c21)CC(OC(=O)C(C)(C)C)c1c-3ccc2ccccc12` (stereo not shown) [Ex. 8 compound] is “A (0.5% by mass≦Dissolvability)”; for `CCCCCC(=O)OC1CC=Cc2cc3c(ccc4c3ccc3c4ccc4c5ccc6cc7c(cc6c5ccc43)C=CCC7OC(=O)CCCCC)cc21` (stereo not shown) [Ex. 10 compound] it is “B (0.1% by mass≦Dissolvability<0.5% by mass)”.
Turning to `CCCCCC(=O)OC1Cc2cc(C#Cc3ccccc3)ccc2-c2ccc(C#Cc3ccccc3)cc21` (stereo not shown) [Ex. 12 compound], the “Dissolvability, solvent Toluene” value was “A (0.5% by mass≦Dissolvability)”.

The nature of the next data set: Solubility of annealed thin film in solvents. It is filed as physicochemical. Particulars: chloroform, THF, toluene, etc. at 25° C.; film after annealing 30 min at 150° C. How it is done:
Each (5 mg) of Ex. 1 compound and Ex. 2 compound synthesized in Synthesis Examples 1 and 2 was dissolved in THF, so that the concentration of the compound became 0.1% by mass, and the mixture was filtrated using a 0.2 μm-filter to prepare a solution. Onto a N-type silicon substrate having a 300 nm-thick thermally-oxidized film, which had been soaked in concentrated sulfuric acid for 24 hours, 100 μL of the prepared solution was added dropwise with a pipette, and a […] liquid droplet of the prepared solution was jetted 50 times using an inkjet apparatus (head; product of Ricoh Printing Systems, Ltd.). The thus-treated substrate was covered with a petri dish and left to stand still until the solvent was evaporated to thereby form a thin film. […] Next, the thin film was subjected to annealing for 30 min at 150° C. in an argon atmosphere.
After annealing, a plurality of colored domains were observed under the polarization microscope, and it was confirmed that a smooth and crystalline film was obtained. These films were obtained because each of Ex. 1 compound and Ex. 2 compound serving as precursors lost an ester group (i.e., a soluble group) and converted to Compound 24 having stronger intermolecular interaction, and became crystalline in the film. The thin film was insoluble in chloroform, THF, toluene, etc. at 25° C.
Take `c1ccc2cc(-c3cc4sc(-c5ccc6ccccc6c5)cc4s3)ccc2c1` [Compound (24)]: the “solubility of thin film” value was “insoluble”.
